Experimental data taken from paper PMC9743092, “Membrane-Active Cyclic Amphiphilic Peptides: Broad-Spectrum Antibacterial Activity Alone and in Combination with Antibiotics” (Journal of Medicinal Chemistry, 2022).
Values after ≈ are worked out from the molar mass of the structure shown. Where two headings read alike, the source gives them in different places. Peptide text beside a SMILES is read from it.

What was measured:
MRSA (ATCC BAA-1556) = system: MRSA (ATCC BAA-1556); set-up: MIC MRSA: unit not given beside the values; conditions: for MIC MRSA: supplementary csv, unit not given
[1] = system: K. pneumoniae (ATCC BAA-1705); conditions: for MIC K. pneumoniae: supplementary csv, unit not given
[2] = system: P. aeruginosa (ATCC 27883); set-up: MIC P. aeruginosa: unit not given beside the values; conditions: supplementary csv, unit not given
E. coli (ATCC 25922) [3] = system: E. coli (ATCC 25922); set-up: MIC E. coli: unit not given beside the values; conditions: supplementary csv, unit not given
[4] = system: human red blood cells (hRBCs); conditions: red cells of human, 2 h
Protocol: The hemolytic activity of all the cyclic peptides was determined using human red blood cells (hRBC) purchased from BioIVT, USA. […] Peptide-induced hemolysis was tested in triplicate by mixing 75 μL of the peptide solution in PBS (two-fold serial dilution) with 75 μL of a 4% (v/v) hRBC suspension in phosphate-buffered saline. The plates were incubated for 2 h at 37 °C without agitation and centrifuged at 1000g for 10 min. Aliquots (100 μL) of the supernatant were transferred to 96-well plates, where hemoglobin release was measured spectrophotometrically at 567 nm. Percent hemolysis was calculated by the following formula: [drawing 1] where A represents the absorbance of the peptide sample at 567 nm and A0 and At represent zero percent and 100% hemolysis determined in phosphate-buffered saline and 1% Triton X-100, respectively.

[5] = system: K. pneumoniae (ATCC BAA-1705); conditions: 24 h, ≥99.9% kill
[6] = system: P. aeruginosa (ATCC 27883); conditions: 24 h, ≥99.9% kill
E. coli (ATCC 25922) [7] = conditions: 24 h, ≥99.9% kill

SMILES	MIC MRSA (MRSA (ATCC BAA-1556))	MIC K. pneumoniae [1]	MIC P. aeruginosa [2]	MIC E. coli (E. coli (ATCC 25922) [3])	HC50 [4]	MBC K. pneumoniae (ATCC BAA-1705) [5]	MBC P. aeruginosa (ATCC 27883) [6]	MBC E. coli (ATCC 25922) (E. coli (ATCC 25922) [7])	MIC MRSA (ATCC BAA-1556) (MRSA (ATCC BAA-1556); CaCl2 (2 mM))	MIC MRSA (ATCC BAA-1556) (MRSA (ATCC BAA-1556); FBS (25%))	MIC MRSA (ATCC BAA-1556) (MRSA (ATCC BAA-1556); FeCl3 (8 µM))	MIC MRSA (ATCC BAA-1556) (MRSA (ATCC BAA-1556); KCl ([…]))	MIC MRSA (ATCC BAA-1556) (MRSA (ATCC BAA-1556); MH broth media, absence of salts and serum)	MIC MRSA (ATCC BAA-1556) (MRSA (ATCC BAA-1556); MgCl2 (1 mM))	MIC MRSA (ATCC BAA-1556) (MRSA (ATCC BAA-1556); NH4Cl (6 mM))	MIC MRSA (ATCC BAA-1556) (MRSA (ATCC BAA-1556); NaCl (150 mM))	MIC K. pneumoniae (ATCC BAA-1705) ([1]; MgCl2 (1 mM))	MIC K. pneumoniae (ATCC BAA-1705) ([1]; NH4Cl (6 mM))
N=C(N)NCCC[C@@H]1NC(=O)[C@H](CCCNC(=N)N)NC(=O)[C@H](CCCNC(=N)N)NC(=O)[C@H](Cc2c[nH]c3ccccc23)NC(=O)[C@H](Cc2c[nH]c3ccccc23)NC(=O)[C@H](Cc2c[nH]c3ccccc23)NC(=O)[C@H](Cc2c[nH]c3ccccc23)NC(=O)[C@H](Cc2c[nH]c3ccccc23)NC(=O)[C@H](CCCNC(=N)N)NC(=O)[C@H](CCCNC(=N)N)NC1=O [5b, [R5W5]]	4	32	32	16	230 µg/mL	32 µg/mL (≈ 18.7 µM)	32 µg/mL (≈ 18.7 µM)	64 µg/mL (≈ 37.4 µM)	–	–	–	–	–	–	–	–	–	–
N=C(N)NCCC[C@@H]1NC(=O)[C@H](CCCNC(=N)N)NC(=O)[C@H](CCCNC(=N)N)NC(=O)[C@H](CCCNC(=N)N)NC(=O)[C@H](Cc2c[nH]c3ccccc23)NC(=O)[C@H](Cc2c[nH]c3ccccc23)NC(=O)[C@H](Cc2c[nH]c3ccccc23)NC(=O)[C@H](Cc2c[nH]c3ccccc23)NC(=O)[C@H](CCCNC(=N)N)NC(=O)[C@H](CCCNC(=N)N)NC1=O [6a, [R6W4]] (cyclo(RRRRRRWWWW))	8	64	16	32	265 µg/mL	128 µg/mL (≈ 76.1 µM)	16 µg/mL (≈ 9.51 µM)	32 µg/mL (≈ 19 µM)	8 µg/mL (≈ 4.76 µM)	8 µg/mL (≈ 4.76 µM)	8 µg/mL (≈ 4.76 µM)	8 µg/mL (≈ 4.76 µM)	8 µg/mL	4 µg/mL (≈ 2.38 µM)	4 µg/mL (≈ 2.38 µM)	8 µg/mL (≈ 4.76 µM)	32 µg/mL (≈ 19 µM)	32 µg/mL (≈ 19 µM)
N=C(N)NCCC[C@@H]1NC(=O)[C@H](CCCNC(=N)N)NC(=O)[C@H](CCCNC(=N)N)NC(=O)[C@H](CCCNC(=N)N)NC(=O)[C@H](Cc2c[nH]c3ccccc23)NC(=O)[C@H](Cc2c[nH]c3ccccc23)NC(=O)[C@H](Cc2c[nH]c3ccccc23)NC(=O)[C@H](Cc2c[nH]c3ccccc23)NC(=O)[C@H](Cc2c[nH]c3ccccc23)NC(=O)[C@H](CCCNC(=N)N)NC(=O)[C@H](CCCNC(=N)N)NC1=O [6b, [R6W5]] (cyclo(RRRRRRWWWWW))	8	64	16	32	255 µg/mL	64 µg/mL (≈ 34.3 µM)	32 µg/mL (≈ 17.1 µM)	128 µg/mL (≈ 68.5 µM)	–	–	–	–	–	–	–	–	–	–
N=C(N)NCCC[C@@H]1NC(=O)[C@H](CCCNC(=N)N)NC(=O)[C@H](CCCNC(=N)N)NC(=O)[C@H](CCCNC(=N)N)NC(=O)[C@H](Cc2c[nH]c3ccccc23)NC(=O)[C@H](Cc2c[nH]c3ccccc23)NC(=O)[C@H](Cc2c[nH]c3ccccc23)NC(=O)[C@H](Cc2c[nH]c3ccccc23)NC(=O)[C@H](Cc2c[nH]c3ccccc23)NC(=O)[C@H](Cc2c[nH]c3ccccc23)NC(=O)[C@H](CCCNC(=N)N)NC(=O)[C@H](CCCNC(=N)N)NC1=O [6c, [R6W6]] (cyclo(RRRRRRWWWWWW))	16	64	128	64	170 µg/mL	–	–	–	–	–	–	–	–	–	–	–	–	–
N=C(N)NCCC[C@@H]1NC(=O)[C@H](CCCNC(=N)N)NC(=O)[C@H](CCCNC(=N)N)NC(=O)[C@H](CCCNC(=N)N)NC(=O)[C@H](Cc2c[nH]c3ccccc23)NC(=O)[C@H](Cc2c[nH]c3ccccc23)NC(=O)[C@H](Cc2c[nH]c3ccccc23)NC(=O)[C@H](Cc2c[nH]c3ccccc23)NC(=O)[C@H](Cc2c[nH]c3ccccc23)NC(=O)[C@H](Cc2c[nH]c3ccccc23)NC(=O)[C@H](Cc2c[nH]c3ccccc23)NC(=O)[C@H](CCCNC(=N)N)NC(=O)[C@H](CCCNC(=N)N)NC1=O [6d, [R6W7]] (cyclo(RRRRRRWWWWWWW))	64	256	>256	128	85 µg/mL	–	–	–	–	–	–	–	–	–	–	–	–	–
N=C(N)NCCC[C@@H]1NC(=O)[C@H](CCCNC(=N)N)NC(=O)[C@H](CCCNC(=N)N)NC(=O)[C@H](CCCNC(=N)N)NC(=O)[C@H](Cc2c[nH]c3ccccc23)NC(=O)[C@H](Cc2c[nH]c3ccccc23)NC(=O)[C@H](Cc2c[nH]c3ccccc23)NC(=O)[C@H](Cc2c[nH]c3ccccc23)NC(=O)[C@H](CCCNC(=N)N)NC(=O)[C@H](CCCNC(=N)N)NC(=O)[C@H](CCCNC(=N)N)NC1=O [7a, [R7W4]] (cyclo(RRRRRRRWWWW))	16	64	32	32	190 µg/mL	–	–	–	–	–	–	–	–	–	–	–	–	–
